We go through eight compounds from US20240116985A1, “STAPLED PEPTIDES AND METHODS THEREOF” (priority 2020, published 2024).

The nature of one data set: CHI Log D procedure. In kind it is physicochemical. Conditions: pH 7.4, CHI Log D.
In data set [1] the target is T1, beta-catenin/TCF4 engagement (Homo sapiens, UniProt P35222).
T1 construct: expressed in transfected cells; host or cells: HEK293
T1 sequence (P35222 1-781): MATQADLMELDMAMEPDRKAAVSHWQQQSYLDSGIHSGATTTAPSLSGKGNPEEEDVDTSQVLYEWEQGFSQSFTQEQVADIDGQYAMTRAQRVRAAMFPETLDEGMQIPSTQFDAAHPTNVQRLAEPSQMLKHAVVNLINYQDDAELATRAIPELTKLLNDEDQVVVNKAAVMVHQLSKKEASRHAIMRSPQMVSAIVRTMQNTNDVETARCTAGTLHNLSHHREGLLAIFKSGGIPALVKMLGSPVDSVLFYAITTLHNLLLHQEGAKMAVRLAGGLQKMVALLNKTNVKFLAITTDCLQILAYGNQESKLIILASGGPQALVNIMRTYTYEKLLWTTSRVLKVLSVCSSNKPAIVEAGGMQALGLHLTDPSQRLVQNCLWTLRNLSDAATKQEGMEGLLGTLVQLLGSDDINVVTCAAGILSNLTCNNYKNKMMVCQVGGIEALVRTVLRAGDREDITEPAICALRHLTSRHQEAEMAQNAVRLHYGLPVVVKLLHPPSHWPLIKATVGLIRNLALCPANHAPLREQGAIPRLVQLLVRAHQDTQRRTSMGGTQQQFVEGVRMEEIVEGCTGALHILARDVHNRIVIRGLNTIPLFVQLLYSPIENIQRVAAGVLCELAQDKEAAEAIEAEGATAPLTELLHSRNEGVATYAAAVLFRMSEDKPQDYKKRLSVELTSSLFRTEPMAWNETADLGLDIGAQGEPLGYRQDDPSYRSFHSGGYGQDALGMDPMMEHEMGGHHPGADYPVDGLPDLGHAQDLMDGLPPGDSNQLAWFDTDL
The data set is described as follows: Nano-BRET target engagement assay (B-cat-Halo & TCF4-Luc in HEK293 cells). The data set is classed as cell-based.

Data set [2] has as its target T2, full-length beta-Catenin (Uniprot ID P35222) (Homo sapiens, UniProt P35222).
T2 construct: 10 nM full-length beta-Catenin (Uniprot ID P35222)
T2 sequence (P35222 1-781): T1 sequence (P35222 1-781)
The data set is described as follows: Fluorescence polarization IC50 (beta-catenin / 5FAM-TCF4 10-53 competition). The data set is classed as binding. Conditions: read-out: beta-Catenin FP IC50.

Another data set is described as follows: Solubility in PBS. The settings on record: Solubility (uM). In kind it is physicochemical. In outline: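 Steps: ultracentrifuge the peptide PBS solution, inject the supernatant on HPLC, inject a 50 μM peptide DMSO solution as reference, then calculate solubility as area ratio (PBS/DMSO) × 50 uM.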
Data set [3] has as its system TCF/LEF luciferase Reporter in DLD1 cells. The data set is described as follows: TCF reporter assay (DLD1 TCF/LEF luciferase reporter, Bright-Glo). In kind it is cell-based. Conditions: for DLD1 TCF c2 BrightGlo % Inhibition: replicates. In outline:
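Readouts: Bright-Glo luciferase for reporter signal and CellTiter-Glo for cell viability, with absolute IC50 derived. The reporter clone came from lentiviral TCF/LEF-luciferase transduction of DLD1 cells, seeded 5000 cells/well in RPMI with 4% FBS and exposed overnight to serially diluted compounds.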

The mark [4] stands for this setting: read-out: DLD1 4% Abs IC50, DLD1 4%.
Where [5] appears, read: absolute IC50, read-out: NanoBRET Abs IC50.
Setting [6] is: absolute IC50, read-out: DLD1 reporter assay Abs IC50.
The mark [7] stands for this setting: first dose = 20 uM (plate map), 20 µM.
The mark [8] stands for this setting: third dose = 5 uM (plate map), 5 µM.

SMILES strings stand for the structures. Converted amounts (≈) assume the structure as drawn. “And” between values parts separate entries of the source, which are not always exact repeats. Equal values may be shown once. Read-outs that look alike come from different tables or passages of the source. Some results are limits rather than exact numbers.

`CC(=O)N1CCC[C@]12CC=CCCCC1(CCCC=CCCCOC(=O)N3CC[C@@](C(=O)N[C@@H](Cc4ccsc4)C(=O)N[C@@H](Cc4csc5ccccc45)C(=O)N[C@@H](CO)C(N)=O)(C3)NC(=O)[C@H](CC(N)=O)NC(=O)[C@H](Cc3ccccc3)NC(=O)[C@H](C)NC(=O)[C@H](C)NC(=O)[C@H](CC(=O)O)NC(=O)[C@H](CC(=O)O)NC1=O)NC(=O)[C@H](CC(C)(C)C)NC(=O)[C@H](CC(=O)O)NC2=O` (stereo partly drawn) [I-815, Ac-PL3-Asp-Npg-B5-Asp-Asp-Ala-Ala-Phe-Asn-PyrS2-3Thi-BztA-Ser-NH2] came in with a chromatographic logD in “CHI Log D procedure” of 2.1. Besides, the IC50 in data set [1] (read-out: NanoBRET Abs IC50) was found to be 15.4 µM; in data set [1] (read-out: NanoBRET IC50), 11.8 µM; in data set [2], 0.005 µM; in data set [3] (setting [4]), 10.3 µM. Further, in the data set “Solubility in PBS”, the Solubility is 46 µM (≈ 86.3 µg/mL).

For the compound `CC(=O)N1CCC[C@]12CC=CCCCC1(CCCC=CCCCOC(=O)N3CC[C@@](C(=O)N[C@@H](Cc4ccccc4)C(=O)N[C@@H](Cc4csc5ccccc45)C(=O)N[C@@H](CCC(N)=O)C(N)=O)(C3)NC(=O)[C@H](Cc3ccccc3)NC(=O)[C@H](Cc3ccccc3)NC(=O)[C@H](C)NC(=O)[C@H](C)NC(=O)[C@H](CN(CC(=O)O)CC(F)(F)F)NC(=O)[C@H](CC(=O)O)NC1=O)NC(=O)[C@H](CC(C)(C)C)NC(=O)[C@H](CC(=O)O)NC2=O` (stereo partly drawn) [I-988, Ac-PL3-Asp-Npg-B5-Asp-TfeGA-Ala-Ala-Phe-Phe-PyrS2-Phe-BztA-Gln-NH2], the chromatographic logD in “CHI Log D procedure” was 2.35. Further, the IC50 in data set [1] (setting [5]) was 13.9 µM; in data set [2], 0.005 µM; in data set [3] (setting [6]) it was 5.2 µM. Besides, the Solubility in the data set “Solubility in PBS” was determined as 11 µM (≈ 22.6 µg/mL). The “DLD1 TCF c2 BrightGlo % Inhibition” value in data set [3] (setting [7]) was 78.1% and 81.3% and 81.9%; in data set [3] (0.625 µM) it was 11.0% and 10.7% and 15.5%; in data set [3] (1.25 µM), 5.7% and 22.3% and 21.2%; in data set [3] (2.5 µM), 13.3% and 28.8% and 33.4%; in data set [3] (10 µM) it was 61.5% and 72.0% and 76.2%; in data set [3] (setting [8]), 32.0% and 57.8% and 62.0%.

`CC(=O)N1CCC[C@]12CC=CCCCC1(CCCC=CCCCCCC[C@@](C)(C(=O)N[C@@H](Cc3ccccc3Cl)C(=O)N[C@@H](Cc3csc4ccccc34)C(=O)N[C@@H](CCC(N)=O)C(N)=O)NC(=O)[C@H](CCO)NC(=O)[C@H](Cc3ccccc3)NC(=O)[C@H](C)NC(=O)[C@H](C)NC(=O)[C@H](CN(CC(=O)O)CC(F)(F)F)NC(=O)[C@H](CC(=O)O)NC1=O)NC(=O)[C@H](CC(C)(C)C)NC(=O)[C@H](CC(=O)O)NC2=O` (stereo partly drawn) [I-996, Ac-PL3-Asp-Npg-B5-Asp-TfeGA-Ala-Ala-Phe-Hse-S8-2C1F-BztA-Gln-NH2]: the chromatographic logD in the data set “CHI Log D procedure” stood at 2.84. Further, the half-inhibitory concentration (IC50) stood at 11.3 µM in data set [1] (setting [5]), 0.021 µM in data set [2], 10.8 µM in data set [3] (setting [6]) and 3.6 µM in data set [3] (setting [4]). The same compound displayed a Solubility in “Solubility in PBS” of 48 µM (≈ 96.1 µg/mL).

In the case of `CC(=O)N1CCC[C@]12CC=CCCCC1(CCCC=CCCCCCC[C@@](C)(C(=O)N[C@@H](Cc3ccccc3Cl)C(=O)N[C@@H](Cc3csc4ccccc34)C(=O)N[C@@H](CCO)C(N)=O)NC(=O)[C@H](CCO)NC(=O)[C@H](Cc3ccccc3)NC(=O)[C@H](C)NC(=O)[C@H](C)NC(=O)[C@H](CN(CC(=O)O)CC(F)(F)F)NC(=O)[C@H](CC(=O)O)NC1=O)NC(=O)[C@H](CC(C)(C)C)NC(=O)[C@H](CC(=O)O)NC2=O` (stereo partly drawn) [I-1000, Ac-PL3-Asp-Npg-B5-Asp-TfeGA-Ala-Ala-Phe-Hse-S8-2C1F-BztA-Hse-NH2], in the data set “CHI Log D procedure”, the chromatographic logD amounted to 2.97. Besides, the concentration for half-maximal inhibition (IC50) in data set [1] (setting [5]) turned out to be 23.9 µM; in data set [2], 0.018 µM; in data set [3] (setting [6]), 8 µM; in data set [3] (setting [4]) it was 1.9 µM. This compound registered a Solubility in “Solubility in PBS” of 44 µM (≈ 86.9 µg/mL). The “DLD1 TCF c2 BrightGlo % Inhibition” value in data set [3] (setting [7]) is 79.5% (2×) and 79.7%; in data set [3] (0.625 µM), −3.4% and 2.4% and 4.9%; in data set [3] (1.25 µM), −0.6% and −1.2% and 1.5%; in data set [3] (2.5 µM) it was 5.5% and 10.2% and 12.4%; in data set [3] (10 µM) it was 57.0% and 59.8% and 61.4%; in data set [3] (setting [8]) it was 25.7% and 29.9% and 32.3%.

For the compound `CC(=O)N1CCC[C@]12CC=CCCCC1(CCCC=CCCCOC(=O)N3CC[C@@](C(=O)N[C@@H](Cc4ccccc4Cl)C(=O)N[C@@H](Cc4csc5ccccc45)C(=O)N[C@@H](CCC(N)=O)C(N)=O)(C3)NC(=O)[C@H](CC(N)=O)NC(=O)[C@H](Cc3ccccc3)NC(=O)[C@H](CO)NC(=O)[C@H](C)NC(=O)[C@H](CN(CC(=O)O)CC(F)(F)F)NC(=O)[C@H](CC(=O)O)NC1=O)NC(=O)[C@H](CC(C)(C)C)NC(=O)[C@H](CC(=O)O)NC2=O` (stereo partly drawn) [I-1004, Ac-PL3-Asp-Npg-B5-Asp-TfeGA-Ala-Ser-Phe-Asn-PyrS2-2C1F-BztA-Gln-NH2], the chromatographic logD in the data set “CHI Log D procedure” turned out to be 2. Besides, the IC50 was 10.6 µM in data set [1] (setting [5]), 0.005 µM in data set [2] and more than 20 µM in data set [3] (setting [6]). Also, the Solubility in “Solubility in PBS” amounted to 47 µM (≈ 97.5 µg/mL).

`CC(=O)N1CCC[C@]12CC=CCCCC1(CCCC=CCCCOC(=O)N3CC[C@@](C(=O)N[C@@H](Cc4ccccc4Cl)C(=O)N[C@@H](Cc4csc5ccccc45)C(=O)N[C@@H](CCC(N)=O)C(N)=O)(C3)NC(=O)[C@H](CC(N)=O)NC(=O)[C@H](Cc3ccccc3)NC(=O)[C@H](C)NC(=O)[C@H](CC(C)C)NC(=O)[C@H](CN(CC(=O)O)CC(F)(F)F)NC(=O)[C@H](CC(=O)O)NC1=O)NC(=O)[C@H](CC(C)(C)C)NC(=O)[C@H](CC(=O)O)NC2=O` (stereo partly drawn) [I-1007, Ac-PL3-Asp-Npg-B5-Asp-TfeGA-Leu-Ala-Phe-Asn-PyrS2-2C1F-BztA-Gln-NH2] returned a chromatographic logD in the data set “CHI Log D procedure” of 2.45. Moreover, the concentration for half-maximal inhibition (IC50) in data set [1] (setting [5]) was 24.9 µM; in data set [2], 0.006 µM; in data set [3] (setting [6]), 3.3 µM. The same compound registered a Solubility in “Solubility in PBS” of 18 µM (≈ 37.8 µg/mL).

`CC(=O)N1CCC[C@]12CC=CCCCC1(CCCC=CCCCOC(=O)N3CC[C@@](C(=O)N[C@@H](Cc4ccccc4Cl)C(=O)N[C@@H](Cc4csc5ccccc45)C(=O)N[C@@H](CCC(N)=O)C(N)=O)(C3)NC(=O)[C@H](CC(N)=O)NC(=O)[C@H](Cc3ccccc3)NC(=O)[C@H](C)NC(=O)[C@H](Cc3ccccc3)NC(=O)[C@H](CN(CC(=O)O)CC(F)(F)F)NC(=O)[C@H](CC(=O)O)NC1=O)NC(=O)[C@H](CC(C)(C)C)NC(=O)[C@H](CC(=O)O)NC2=O` (stereo partly drawn) [I-1008, Ac-PL3-Asp-Npg-B5-Asp-TfeGA-Phe-Ala-Phe-Asn-PyrS2-2C1F-BztA-Gln-NH2]: the chromatographic logD in “CHI Log D procedure” worked out at 2.43. Moreover, the half-inhibitory concentration (IC50) in data set [1] (setting [5]) is 14 µM; in data set [2], 0.009 µM; in data set [3] (setting [6]), 13 µM; in data set [3] (setting [4]), 4.7 µM. In “Solubility in PBS”, this compound returned a Solubility of 34 µM (≈ 72.5 µg/mL).

Regarding `CC(=O)N1CCC[C@]12CC=CCCCC1(CCCC=CCCCOC(=O)N3CC[C@@](C(=O)N[C@@H](Cc4ccccc4Cl)C(=O)N[C@@H](Cc4csc5ccccc45)C(=O)N[C@@H](CCC(N)=O)C(N)=O)(C3)NC(=O)[C@H](CC(N)=O)NC(=O)[C@H](Cc3ccccc3)NC(=O)[C@H](C)NC(=O)[C@H](CCCCN)NC(=O)[C@H](CN(CC(=O)O)CC(F)(F)F)NC(=O)[C@H](CC(=O)O)NC1=O)NC(=O)[C@H](CC(C)(C)C)NC(=O)[C@H](CC(=O)O)NC2=O` (stereo partly drawn) [I-1011, Ac-PL3-Asp-Npg-B5-Asp-TfeGA-Lys-Ala-Phe-Asn-PyrS2-2C1F-BztA-Gln-NH2], in the data set “CHI Log D procedure”, the chromatographic logD turned out to be 2.03. Also, the results for the half-inhibitory concentration (IC50) in data set [1] (setting [5]), in data set [2] and in data set [3] (setting [6]) were 20.8 µM, 0.005 µM and more than 20 µM, respectively. In “Solubility in PBS”, this compound gave a Solubility of 23 µM (≈ 48.6 µg/mL).
